In assay [1] the test system is Human immunodeficiency virus 1. The experiment in a line: Binding affinity to HIV1 His-tagged N-terminal heptad repeat of envelope glycoprotein gp41 assessed as recovery of N36-drug complex at 10 uM after 2 hrs by LC-MS analysis.
In assay [2] the test system is Human immunodeficiency virus 1. The experiment in a line: Binding affinity to HIV1 His-tagged N-terminal heptad repeat of envelope glycoprotein gp41 assessed as recovery of N36-drug complex at 6 uM after 2 hrs by LC-MS analysis.
In assay [3] the test system is Human immunodeficiency virus 1. Kind of assay: Binding affinity to HIV1 His-tagged N-terminal heptad repeat of envelope glycoprotein gp41 assessed as recovery of N36-drug complex at 1 uM after 2 hrs by LC-MS analysis.
The subject of assay [4] is Human immunodeficiency virus 1. Kind of assay: Binding affinity to HIV1 His-tagged N-terminal heptad repeat of envelope glycoprotein gp41 assessed as recovery of N36-drug complex at 0.6 uM after 2 hrs by LC-MS analysis.
In assay [5] the test system is Human immunodeficiency virus 1. The experiment in a line: Antiviral activity against HIV1 NL4-3 harboring gp41 D36G mutant infected in human HeLa cells expressing CD4-LTR-beta-gal assessed as inhibition of viral replication after 48 hrs by MAGI assay. Format: functional, organism-based.
Assay [6] has as its system Human immunodeficiency virus 1. The experiment in a line: Thermal stability of HIV1 envelope glycoprotein gp41 His-tagged N-terminal heptad repeat N36-drug complex assessed as thermal unfolding transition state by measuring molar ellipticity at 4 to 90 degC by circular dichroic spectra analysis.
Assay [7] has as its system Human immunodeficiency virus 1. The experiment in a line: Binding affinity to HIV1 His-tagged N-terminal heptad repeat of envelope glycoprotein gp41 assessed as recovery of N36-drug complex after 2 hrs by LC-MS analysis. More on the design: concentration or dose not given beside the values.

Each structure is given as a SMILES string. pEC50: −log10 of the molar value. Residues, ends and D or L forms follow the SMILES beside them.

Turning to `CC[C@H](C)[C@H](NC(=O)[C@H](CC(C)C)NC(=O)[C@H](CCC(=O)O)NC(=O)[C@H](CCC(=O)O)NC(=O)[C@@H](NC(=O)[C@H](CCCCN)NC(=O)[C@H](CCCCN)NC(=O)[C@@H](NC(=O)[C@H](Cc1ccc(O)cc1)NC(=O)[C@H](CCC(=O)O)NC(=O)[C@H](CCC(=O)O)NC(=O)[C@@H](NC(=O)[C@H](CCCCN)NC(=O)[C@H](CCCCN)NC(=O)[C@H](CC(=O)O)NC(=O)[C@H](Cc1c[nH]c2ccccc12)NC(=O)[C@H](CCC(=O)O)NC(=O)[C@H](CCC(=O)O)NC(=O)[C@H](Cc1c[nH]c2ccccc12)NC(C)=O)[C@@H](C)CC)[C@@H](C)O)[C@@H](C)CC)C(=O)N[C@@H](CCCCN)C(=O)N[C@@H](CCCCN)C(=O)N[C@@H](Cc1ccccc1)C(=O)N[C@@H](CCC(=O)O)C(=O)N[C@@H](CCC(=O)O)C(=O)N[C@@H](CCC(N)=O)C(=O)N[C@@H](CCC(N)=O)C(=O)N[C@@H](CCCCN)C(=O)N[C@@H](CCCCN)C(=O)N[C@@H](CC(N)=O)C(=O)N[C@@H](CCC(=O)O)C(=O)N[C@@H](CCC(=O)O)C(=O)N[C@@H](CCC(=O)O)C(=O)N[C@@H](CC(C)C)C(=O)N[C@@H](CCCCN)C(=O)N[C@@H](CCCCN)C(N)=O` (Ac-WEEWDKKIEEYTKKIEELIKKFEEQQKKNEEELKK-NH2), the Activity in assay [1] was determined as 0.7%; in assay [2] it was 0.6%; in assay [3] it was 4%; in assay [4] it was 6.3%. For the same compound, the pEC50 – broadly, −log10 of the EC50, conventionally taken in molar units – in assay [5] is 8.82. Also, in assay [6], the Tm – broadly, the temperature at the midpoint of the melting transition – turned out to be 72.9 °C.

As to `CC[C@H](C)[C@H](NC(=O)[C@H](CC(C)C)NC(=O)[C@H](CCC(=O)O)NC(=O)[C@H](CCC(=O)O)NC(=O)[C@@H](NC(=O)[C@H](CCCCN)NC(=O)[C@H](CCCCN)NC(=O)[C@@H](NC(=O)[C@H](Cc1ccc(O)cc1)NC(=O)[C@H](CCC(=O)O)NC(=O)[C@H](CCC(=O)O)NC(=O)[C@@H](NC(=O)[C@H](CCCCN)NC(=O)[C@H](CCCCN)NC(=O)[C@H](CC(=O)O)NC(=O)[C@H](Cc1c[nH]c2ccccc12)NC(=O)[C@H](CCC(=O)O)NC(=O)[C@H](CCC(=O)O)NC(=O)[C@H](Cc1c[nH]c2ccccc12)NC(C)=O)[C@@H](C)CC)[C@@H](C)O)[C@@H](C)CC)C(=O)N[C@@H](CCCCN)C(=O)N[C@@H](CCCCN)C(=O)NCC(=O)N[C@@H](CCC(=O)O)C(=O)N[C@@H](CCC(=O)O)C(=O)N[C@@H](CCC(N)=O)C(=O)N[C@@H](CCC(N)=O)C(=O)N[C@@H](CCCCN)C(=O)N[C@@H](CCCCN)C(=O)N[C@@H](CC(N)=O)C(=O)N[C@@H](CCC(=O)O)C(=O)N[C@@H](CCC(=O)O)C(=O)N[C@@H](CCC(=O)O)C(=O)N[C@@H](CC(C)C)C(=O)N[C@@H](CCCCN)C(=O)N[C@@H](CCCCN)C(N)=O` (Ac-WEEWDKKIEEYTKKIEELIKKGEEQQKKNEEELKK-NH2), the Activity turned out to be 13.8% in assay [1], 14.4% in assay [2], 11.6% in assay [3] and 5.9% in assay [4]. Moreover, the pEC50 in assay [5] is 8.72. Moreover, in assay [6], the Tm is 79.1 °C.

For `CC[C@H](C)[C@H](NC(=O)[C@H](CC(C)C)NC(=O)[C@H](CCC(=O)O)NC(=O)[C@H](CCC(=O)O)NC(=O)[C@@H](NC(=O)[C@H](CCCCN)NC(=O)[C@H](CCCCN)NC(=O)[C@@H](NC(=O)[C@H](Cc1ccc(O)cc1)NC(=O)[C@H](CCC(=O)O)NC(=O)[C@H](CCC(=O)O)NC(=O)[C@@H](NC(=O)[C@H](CCCCN)NC(=O)[C@H](CCCCN)NC(=O)[C@H](CC(=O)O)NC(=O)[C@H](Cc1c[nH]c2ccccc12)NC(=O)[C@H](CCC(=O)O)NC(=O)[C@H](CCC(=O)O)NC(=O)[C@H](Cc1c[nH]c2ccccc12)NC(C)=O)[C@@H](C)CC)[C@@H](C)O)[C@@H](C)CC)C(=O)N[C@@H](CCCCN)C(=O)N[C@@H](CCCCN)C(=O)N[C@@H](CO)C(=O)N[C@@H](CCC(=O)O)C(=O)N[C@@H](CCC(=O)O)C(=O)N[C@@H](Cc1c[nH]c2ccccc12)C(=O)N[C@@H](CCC(N)=O)C(=O)N[C@@H](CCCCN)C(=O)N[C@@H](CCCCN)C(=O)N[C@@H](CC(N)=O)C(=O)N[C@@H](CCC(=O)O)C(=O)N[C@@H](CCC(=O)O)C(=O)N[C@@H](CCC(=O)O)C(=O)N[C@@H](CC(C)C)C(=O)N[C@@H](CCCCN)C(=O)N[C@@H](CCCCN)C(N)=O` (Ac-WEEWDKKIEEYTKKIEELIKKSEEWQKKNEEELKK-NH2), the pEC50 in assay [5] is 8.77. In addition, the Tm in assay [6] was 77.1 °C. Also, the Activity in assay [7] came to 7.1%.

Take `CC[C@H](C)[C@H](NC(=O)[C@H](CC(C)C)NC(=O)[C@H](CCC(=O)O)NC(=O)[C@H](CCC(=O)O)NC(=O)[C@@H](NC(=O)[C@H](CCCCN)NC(=O)[C@H](CCCCN)NC(=O)[C@@H](NC(=O)[C@H](Cc1ccc(O)cc1)NC(=O)[C@H](CCC(=O)O)NC(=O)[C@H](CCC(=O)O)NC(=O)[C@@H](NC(=O)[C@H](CCCCN)NC(=O)[C@H](CCCCN)NC(=O)[C@H](CC(=O)O)NC(=O)[C@H](Cc1c[nH]c2ccccc12)NC(=O)[C@H](CCC(=O)O)NC(=O)[C@H](CCC(=O)O)NC(=O)[C@H](Cc1c[nH]c2ccccc12)NC(C)=O)[C@@H](C)CC)[C@@H](C)O)[C@@H](C)CC)C(=O)N[C@@H](CCCCN)C(=O)N[C@@H](CCCCN)C(=O)N[C@@H](CO)C(=O)N[C@@H](CCC(=O)O)C(=O)N[C@@H](CCC(=O)O)C(=O)N[C@H](C(=O)N[C@@H](CCC(N)=O)C(=O)N[C@@H](CCCCN)C(=O)N[C@@H](CCCCN)C(=O)N[C@@H](CC(N)=O)C(=O)N[C@@H](CCC(=O)O)C(=O)N[C@@H](CCC(=O)O)C(=O)N[C@@H](CCC(=O)O)C(=O)N[C@@H](CC(C)C)C(=O)N[C@@H](CCCCN)C(=O)N[C@@H](CCCCN)C(N)=O)[C@@H](C)O` (Ac-WEEWDKKIEEYTKKIEELIKKSEETQKKNEEELKK-NH2): the pEC50 in assay [5] was 8.49. Moreover, the Tm in assay [6] was determined as 76.7 °C. The Activity in assay [7] was 7.3%.

In the case of `CC[C@H](C)[C@H](NC(=O)[C@H](CC(C)C)NC(=O)[C@H](CCC(=O)O)NC(=O)[C@H](CCC(=O)O)NC(=O)[C@@H](NC(=O)[C@H](CCCCN)NC(=O)[C@H](CCCCN)NC(=O)[C@@H](NC(=O)[C@H](Cc1ccc(O)cc1)NC(=O)[C@H](CCC(=O)O)NC(=O)[C@H](CCC(=O)O)NC(=O)[C@@H](NC(=O)[C@H](CCCCN)NC(=O)[C@H](CCCCN)NC(=O)[C@H](CC(=O)O)NC(=O)[C@H](Cc1c[nH]c2ccccc12)NC(=O)[C@H](CCC(=O)O)NC(=O)[C@H](CCC(=O)O)NC(=O)[C@H](Cc1c[nH]c2ccccc12)NC(C)=O)[C@@H](C)CC)[C@@H](C)O)[C@@H](C)CC)C(=O)N[C@@H](CCCCN)C(=O)N[C@@H](CCCCN)C(=O)N[C@@H](CO)C(=O)N[C@@H](CCC(=O)O)C(=O)N[C@@H](CCC(=O)O)C(=O)N[C@@H](CCCNC(=N)N)C(=O)N[C@@H](CCC(N)=O)C(=O)N[C@@H](CCCCN)C(=O)N[C@@H](CCCCN)C(=O)N[C@@H](CC(N)=O)C(=O)N[C@@H](CCC(=O)O)C(=O)N[C@@H](CCC(=O)O)C(=O)N[C@@H](CCC(=O)O)C(=O)N[C@@H](CC(C)C)C(=O)N[C@@H](CCCCN)C(=O)N[C@@H](CCCCN)C(N)=O` (Ac-WEEWDKKIEEYTKKIEELIKKSEERQKKNEEELKK-NH2), the pEC50 in assay [5] is 8.60. In assay [6], the Tm was determined as 71.5 °C. Besides, the Activity in assay [7] was determined as 7.6%.

`CC[C@H](C)[C@H](NC(=O)[C@H](CC(C)C)NC(=O)[C@H](CCC(=O)O)NC(=O)[C@H](CCC(=O)O)NC(=O)[C@@H](NC(=O)[C@H](CCCCN)NC(=O)[C@H](CCCCN)NC(=O)[C@@H](NC(=O)[C@H](Cc1ccc(O)cc1)NC(=O)[C@H](CCC(=O)O)NC(=O)[C@H](CCC(=O)O)NC(=O)[C@@H](NC(=O)[C@H](CCCCN)NC(=O)[C@H](CCCCN)NC(=O)[C@H](CC(=O)O)NC(=O)[C@H](Cc1c[nH]c2ccccc12)NC(=O)[C@H](CCC(=O)O)NC(=O)[C@H](CCC(=O)O)NC(=O)[C@H](Cc1c[nH]c2ccccc12)NC(C)=O)[C@@H](C)CC)[C@@H](C)O)[C@@H](C)CC)C(=O)N[C@@H](CCCCN)C(=O)N[C@@H](CCCCN)C(=O)N[C@@H](CO)C(=O)N[C@@H](CCC(=O)O)C(=O)N[C@@H](CCC(=O)O)C(=O)N[C@@H](CC(N)=O)C(=O)N[C@@H](CCC(N)=O)C(=O)N[C@@H](CCCCN)C(=O)N[C@@H](CCCCN)C(=O)N[C@@H](CC(N)=O)C(=O)N[C@@H](CCC(=O)O)C(=O)N[C@@H](CCC(=O)O)C(=O)N[C@@H](CCC(=O)O)C(=O)N[C@@H](CC(C)C)C(=O)N[C@@H](CCCCN)C(=O)N[C@@H](CCCCN)C(N)=O` (Ac-WEEWDKKIEEYTKKIEELIKKSEENQKKNEEELKK-NH2): the pEC50 in assay [5] is 8.60. In addition, in assay [6], the Tm was 73.4 °C. The Activity in assay [7] stood at 4%.

These data come from ChEMBL document CHEMBL3390848, “Affinity selection and sequence-activity relationships of HIV-1 membrane fusion inhibitors directed at the drug-resistant variants” (Medchemcomm, 2010).
